Patent US6245521A, “Assay for evaluating the affinity of compounds to the glutamate GluR5 receptor” (Eli Lilly and Company, priority 1999, dated 2001)

Experiments:
human GluR3 = molecular target: T1, human GluR3 (Homo sapiens, UniProt P42263); experiment: Electrophysiological (patch-clamp) functional studies on transfected HEK293 cells; format: cell-based; conditions: vs 100 mμ AMPA
T1 construct: expressed in transfected cells; host or cells: HEK293
Description: (§1) Activity of compounds acting at the kainate receptor, GluR5, can be determined by radiolabeled ligand binding studies at the cloned and expressed human GluR5 receptor (Korczak et al., 1994, Recept. Channels 3; 41-49), and by whole cell voltage clamp electrophysiological recordings of currents in acutely isolated rat dorsal root ganglion neurons (Bleakman et al., 1996, Mol. Pharmacol. 49; 581-585). The selectivity of compounds acting at GluR5 receptors is determined by measurement of activity at other AMPA and kainate receptors including receptor-ligand binding studies and whole-cell voltage clamp electrophysiological recordings of functional activity at human GluR1-GluR4 receptors (Fletcher et al., 1995, Recept. Channels 3; 21-31), at human GluR6 receptors (Hoo et al., Recept. Channels 2;327-338), at AMPA receptors in acutely isolated cerebellar Purkinje neurons (Bleakman et al., 1996, Mol. Pharmacol. 49; 581-585), and other tissues expressing AMPA receptors (Fletcher and Lodge, 1996, Pharmacol. Ther. 70; 65-89).
(§2) Functional studies were carried out on HEK293 cells stably transfected with human GluR receptors and on acutely isolated dorsal root ganglion neurons (DRG) using patch-clamp technology (Bleakman et al., 1996, Mol. Pharmacol., 49, 581-585). EC50 values (mμ) for ATPA were estimated for GluR1-4 vs 100 mμAMPA, GluR5 vs 100 mμ KA, GluR6 vs 1 mμ KA, and DRG vs 30 mμ KA, with the following results: […]

human GluR6 [1] = molecular target: T2, human GluR6 (Homo sapiens, UniProt Q13002); experiment: as above; format: cell-based; conditions: vs 1 mμ KA
T2 construct: expressed in transfected cells; host or cells: HEK293
Description: as §1, §2

human GluR1 [2] = molecular target: T3, human GluR1 (Homo sapiens, UniProt P42261); experiment: as above; format: cell-based; conditions: vs 100 mμ AMPA
T3 construct: expressed in transfected cells; host or cells: HEK293
Description: as §1, §2

human GluR5 [3] = molecular target: T4, human GluR5 (Homo sapiens, UniProt P39086); experiment: ATPA selectivity profile in binding studies, displacement of 3[H] kainate
T4 construct: expressed in transfected cells; host or cells: HEK293
Description: as §1
(§3) Cell lines (HEK293 cells) stably transfected with human GluR receptors were employed. Displacement of ^3 [H] AMPA by increasing concentrations of ATPA was used on GluR1-4-expressing cells and ^3 [H] kainate (KA) on GluR5, 6, 7 KA2-expressing cells.

human GluR2 [4] = molecular target: T5, human GluR2 (Homo sapiens, UniProt P42262); experiment: ATPA selectivity profile in binding studies, displacement of 3[H] AMPA; conditions: HEK293 cells stably transfected with human GluR2
T5 construct: expressed in transfected cells; host or cells: HEK293
Description: as §1, §3

human GluR4 [5] = molecular target: T6, human GluR4 (Homo sapiens, UniProt P48058); experiment: as above; conditions: HEK293 cells stably transfected with human GluR4
T6 construct: expressed in transfected cells; host or cells: HEK293
Description: as §1, §3

human GluR7 = molecular target: T7, human GluR7 (Homo sapiens, UniProt Q13003); experiment: ATPA selectivity profile in binding studies, displacement of 3[H] kainate; conditions: HEK293 cells stably transfected with human GluR7
T7 construct: expressed in transfected cells; host or cells: HEK293
Description: as §1
(§4) Cell lines (HEK293 cells) stably transfected with human GluR receptors were employed. Displacement of ^3 [H] AMPA by increasing concentrations of ATPA was used on GluR1-4-expressing cells and ^3 [H] kainate (KA) on GluR5, 6, 7 KA2-expressing cells. Estimated activity (Ki) in nM was as follows.

human KA2 = molecular target: T8, human KA2 (Homo sapiens, UniProt Q16478); experiment: as above; conditions: HEK293 cells stably transfected with human KA2
T8 construct: expressed in transfected cells; host or cells: HEK293
T8 sequence (Q16478 15-980): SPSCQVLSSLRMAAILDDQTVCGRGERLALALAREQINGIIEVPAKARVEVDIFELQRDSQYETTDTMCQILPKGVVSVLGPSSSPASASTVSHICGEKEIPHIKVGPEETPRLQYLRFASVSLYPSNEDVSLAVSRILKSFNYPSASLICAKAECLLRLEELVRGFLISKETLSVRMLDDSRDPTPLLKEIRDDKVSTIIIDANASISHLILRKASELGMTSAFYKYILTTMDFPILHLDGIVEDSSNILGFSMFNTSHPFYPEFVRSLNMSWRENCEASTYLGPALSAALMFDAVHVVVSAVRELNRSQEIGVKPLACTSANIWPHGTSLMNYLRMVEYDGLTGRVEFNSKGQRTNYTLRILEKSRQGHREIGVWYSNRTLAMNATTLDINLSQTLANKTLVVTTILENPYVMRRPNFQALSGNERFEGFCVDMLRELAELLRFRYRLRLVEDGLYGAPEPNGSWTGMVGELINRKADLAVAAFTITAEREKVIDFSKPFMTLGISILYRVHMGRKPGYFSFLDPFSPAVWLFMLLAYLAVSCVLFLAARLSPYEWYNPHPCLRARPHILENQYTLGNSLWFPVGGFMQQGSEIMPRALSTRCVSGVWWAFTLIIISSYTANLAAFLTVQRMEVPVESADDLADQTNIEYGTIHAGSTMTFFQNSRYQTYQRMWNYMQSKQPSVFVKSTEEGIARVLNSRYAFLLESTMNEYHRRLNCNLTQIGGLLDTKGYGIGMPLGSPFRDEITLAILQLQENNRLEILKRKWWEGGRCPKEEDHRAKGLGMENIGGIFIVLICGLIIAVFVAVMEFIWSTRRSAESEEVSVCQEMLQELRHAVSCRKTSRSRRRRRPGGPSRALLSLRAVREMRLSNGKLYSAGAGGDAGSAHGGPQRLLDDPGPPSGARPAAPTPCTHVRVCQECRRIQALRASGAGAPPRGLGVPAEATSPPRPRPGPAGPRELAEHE
Description: as §1, §4

human GluR6 [6] = molecular target: T2, human GluR6; experiment: as above; conditions: HEK293 cells stably transfected with human GluR6
Description: as §1, §4

CA1 pyramidal neurons = experiment: Electrophysiological test of synaptic transmission in the hippocampus; format: cell-based; conditions: ATPA 1 μM
Source text: As mentioned above, ATPA modulates synaptic transmission in the hippocampus. […] It is further believed that such selective modulation of GluR5 is likely to show benefits in the treatment of cognitive function.

human GluR2 [7] = molecular target: T5, human GluR2; experiment: Electrophysiological (patch-clamp) functional studies on transfected HEK293 cells; format: cell-based; conditions: vs 100 mμ AMPA
Description: as §1
(§5) Functional studies were carried out on HEK293 cells stably transfected with human GluR receptors and on acutely isolated dorsal root ganglion neurons (DRG) using patch-clamp technology (Bleakman et al., 1996, Mol. Pharmacol., 49, 581-585).

human GluR5 [8] = molecular target: T4, human GluR5; experiment: as above; format: cell-based
Description: as §1, §5

human GluR4 [9] = molecular target: T6, human GluR4; experiment: as above; format: cell-based; conditions: vs 100 mμ AMPA
Description: as §1, §5

human GluR1 [10] = molecular target: T3, human GluR1; experiment: ATPA selectivity profile in binding studies, displacement of 3[H] AMPA; conditions: HEK293 cells stably transfected with human GluR1
Description: as §1, §4

[11] = tested on: dorsal root ganglion neurons (DRG); experiment: Patch-clamp functional studies on acutely isolated dorsal root ganglion neurons; format: cell-based; conditions: Rattus norvegicus, Neuron, vs 30 mμ KA
Description: as §1
Functional studies were carried out on HEK293 cells stably transfected with human GluR receptors and on acutely isolated dorsal root ganglion neurons (DRG) using patch-clamp technology (Bleakman et al., 1996, Mol. Pharmacol., 49, 581-585). […]

T4 sequence (P39086 31-905 isoform P39086-2 limits assumed): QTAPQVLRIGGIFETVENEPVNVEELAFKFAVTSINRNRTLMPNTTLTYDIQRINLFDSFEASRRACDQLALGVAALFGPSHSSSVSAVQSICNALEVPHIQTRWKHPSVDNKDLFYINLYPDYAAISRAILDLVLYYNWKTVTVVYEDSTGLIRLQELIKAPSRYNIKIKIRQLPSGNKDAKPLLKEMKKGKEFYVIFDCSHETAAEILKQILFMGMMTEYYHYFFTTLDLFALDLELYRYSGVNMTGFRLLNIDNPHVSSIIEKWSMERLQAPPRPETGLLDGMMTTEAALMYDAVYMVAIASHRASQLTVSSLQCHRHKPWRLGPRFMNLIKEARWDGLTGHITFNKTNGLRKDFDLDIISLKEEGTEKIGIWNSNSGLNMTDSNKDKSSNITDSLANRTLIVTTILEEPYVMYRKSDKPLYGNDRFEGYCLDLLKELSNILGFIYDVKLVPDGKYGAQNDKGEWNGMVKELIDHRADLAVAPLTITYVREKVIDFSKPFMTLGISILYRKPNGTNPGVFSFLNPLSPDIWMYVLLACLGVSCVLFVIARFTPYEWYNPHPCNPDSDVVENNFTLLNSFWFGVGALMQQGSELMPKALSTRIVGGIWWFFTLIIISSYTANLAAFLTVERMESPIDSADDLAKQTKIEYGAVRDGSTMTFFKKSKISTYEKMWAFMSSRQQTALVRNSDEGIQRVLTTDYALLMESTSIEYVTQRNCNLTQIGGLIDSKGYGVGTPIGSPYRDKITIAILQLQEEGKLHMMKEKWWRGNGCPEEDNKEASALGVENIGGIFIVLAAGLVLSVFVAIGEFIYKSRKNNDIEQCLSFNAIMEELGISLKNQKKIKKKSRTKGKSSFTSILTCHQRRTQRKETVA
T5 sequence (P42262 25-883): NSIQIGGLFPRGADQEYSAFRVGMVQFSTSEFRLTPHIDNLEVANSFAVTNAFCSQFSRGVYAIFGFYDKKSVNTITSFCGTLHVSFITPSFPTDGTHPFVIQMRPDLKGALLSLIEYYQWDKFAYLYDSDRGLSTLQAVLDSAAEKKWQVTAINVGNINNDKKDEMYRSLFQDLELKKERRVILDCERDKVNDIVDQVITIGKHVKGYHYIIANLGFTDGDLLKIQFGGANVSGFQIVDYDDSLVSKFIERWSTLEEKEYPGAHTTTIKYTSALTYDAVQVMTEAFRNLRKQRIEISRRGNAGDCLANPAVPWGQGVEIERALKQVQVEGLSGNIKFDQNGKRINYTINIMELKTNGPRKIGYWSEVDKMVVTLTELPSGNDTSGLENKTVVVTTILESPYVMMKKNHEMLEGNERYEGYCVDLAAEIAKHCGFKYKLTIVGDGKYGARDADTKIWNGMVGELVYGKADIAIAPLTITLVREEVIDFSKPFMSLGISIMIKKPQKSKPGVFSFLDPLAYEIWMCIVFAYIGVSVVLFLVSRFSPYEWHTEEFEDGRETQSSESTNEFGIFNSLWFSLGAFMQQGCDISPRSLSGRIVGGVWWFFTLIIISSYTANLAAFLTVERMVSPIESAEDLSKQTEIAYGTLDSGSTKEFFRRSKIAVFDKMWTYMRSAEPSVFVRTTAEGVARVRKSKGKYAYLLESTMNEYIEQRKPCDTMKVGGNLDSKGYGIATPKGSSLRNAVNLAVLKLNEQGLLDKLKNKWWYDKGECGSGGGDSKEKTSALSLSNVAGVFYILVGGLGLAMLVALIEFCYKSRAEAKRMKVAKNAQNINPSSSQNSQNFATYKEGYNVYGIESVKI
T2 sequence (Q13002 32-908): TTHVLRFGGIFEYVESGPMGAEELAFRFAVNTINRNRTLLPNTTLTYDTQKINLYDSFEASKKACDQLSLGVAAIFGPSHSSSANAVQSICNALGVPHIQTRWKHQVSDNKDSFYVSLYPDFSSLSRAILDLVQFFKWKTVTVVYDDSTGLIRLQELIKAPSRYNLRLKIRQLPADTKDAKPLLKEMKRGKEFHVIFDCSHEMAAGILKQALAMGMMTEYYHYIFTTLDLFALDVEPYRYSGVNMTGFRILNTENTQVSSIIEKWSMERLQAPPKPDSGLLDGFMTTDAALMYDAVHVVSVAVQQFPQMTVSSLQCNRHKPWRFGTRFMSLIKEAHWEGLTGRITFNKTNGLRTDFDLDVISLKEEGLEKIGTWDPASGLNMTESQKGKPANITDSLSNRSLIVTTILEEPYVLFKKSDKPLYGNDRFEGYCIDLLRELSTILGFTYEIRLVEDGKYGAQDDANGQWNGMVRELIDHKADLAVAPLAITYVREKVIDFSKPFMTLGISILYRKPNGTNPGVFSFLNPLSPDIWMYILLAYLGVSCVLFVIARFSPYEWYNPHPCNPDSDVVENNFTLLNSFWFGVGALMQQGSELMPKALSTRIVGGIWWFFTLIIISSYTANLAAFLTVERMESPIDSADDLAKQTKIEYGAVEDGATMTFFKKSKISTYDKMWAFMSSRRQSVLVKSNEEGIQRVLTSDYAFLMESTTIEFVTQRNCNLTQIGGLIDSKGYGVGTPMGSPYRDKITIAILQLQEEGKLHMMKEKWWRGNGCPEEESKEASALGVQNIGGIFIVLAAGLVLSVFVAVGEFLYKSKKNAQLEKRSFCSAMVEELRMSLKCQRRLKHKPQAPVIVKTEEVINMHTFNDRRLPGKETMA
T6 sequence (P48058 21-902): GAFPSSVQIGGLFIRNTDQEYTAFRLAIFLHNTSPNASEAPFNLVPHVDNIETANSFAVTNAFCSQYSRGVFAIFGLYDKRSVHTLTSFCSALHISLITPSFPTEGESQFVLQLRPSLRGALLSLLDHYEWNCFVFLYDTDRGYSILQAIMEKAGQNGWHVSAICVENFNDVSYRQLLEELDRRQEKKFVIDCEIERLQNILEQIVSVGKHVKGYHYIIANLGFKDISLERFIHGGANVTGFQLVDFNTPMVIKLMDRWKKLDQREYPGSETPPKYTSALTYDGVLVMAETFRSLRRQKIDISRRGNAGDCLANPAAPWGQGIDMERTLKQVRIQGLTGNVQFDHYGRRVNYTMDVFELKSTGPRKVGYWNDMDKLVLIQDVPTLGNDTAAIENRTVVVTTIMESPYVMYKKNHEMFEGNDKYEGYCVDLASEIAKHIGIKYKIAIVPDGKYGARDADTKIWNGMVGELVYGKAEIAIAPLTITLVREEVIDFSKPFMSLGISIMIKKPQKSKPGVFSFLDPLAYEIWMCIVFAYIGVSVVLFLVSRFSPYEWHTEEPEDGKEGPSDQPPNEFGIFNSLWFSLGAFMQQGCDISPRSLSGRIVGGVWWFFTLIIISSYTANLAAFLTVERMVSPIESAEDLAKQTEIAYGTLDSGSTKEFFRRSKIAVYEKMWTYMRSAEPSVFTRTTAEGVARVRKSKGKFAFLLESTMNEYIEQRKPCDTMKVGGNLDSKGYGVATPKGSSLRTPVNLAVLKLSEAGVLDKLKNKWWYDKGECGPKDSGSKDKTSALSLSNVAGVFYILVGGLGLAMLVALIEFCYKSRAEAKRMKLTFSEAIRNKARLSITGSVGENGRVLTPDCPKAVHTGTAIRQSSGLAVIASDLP
T3 sequence (P42261 19-906): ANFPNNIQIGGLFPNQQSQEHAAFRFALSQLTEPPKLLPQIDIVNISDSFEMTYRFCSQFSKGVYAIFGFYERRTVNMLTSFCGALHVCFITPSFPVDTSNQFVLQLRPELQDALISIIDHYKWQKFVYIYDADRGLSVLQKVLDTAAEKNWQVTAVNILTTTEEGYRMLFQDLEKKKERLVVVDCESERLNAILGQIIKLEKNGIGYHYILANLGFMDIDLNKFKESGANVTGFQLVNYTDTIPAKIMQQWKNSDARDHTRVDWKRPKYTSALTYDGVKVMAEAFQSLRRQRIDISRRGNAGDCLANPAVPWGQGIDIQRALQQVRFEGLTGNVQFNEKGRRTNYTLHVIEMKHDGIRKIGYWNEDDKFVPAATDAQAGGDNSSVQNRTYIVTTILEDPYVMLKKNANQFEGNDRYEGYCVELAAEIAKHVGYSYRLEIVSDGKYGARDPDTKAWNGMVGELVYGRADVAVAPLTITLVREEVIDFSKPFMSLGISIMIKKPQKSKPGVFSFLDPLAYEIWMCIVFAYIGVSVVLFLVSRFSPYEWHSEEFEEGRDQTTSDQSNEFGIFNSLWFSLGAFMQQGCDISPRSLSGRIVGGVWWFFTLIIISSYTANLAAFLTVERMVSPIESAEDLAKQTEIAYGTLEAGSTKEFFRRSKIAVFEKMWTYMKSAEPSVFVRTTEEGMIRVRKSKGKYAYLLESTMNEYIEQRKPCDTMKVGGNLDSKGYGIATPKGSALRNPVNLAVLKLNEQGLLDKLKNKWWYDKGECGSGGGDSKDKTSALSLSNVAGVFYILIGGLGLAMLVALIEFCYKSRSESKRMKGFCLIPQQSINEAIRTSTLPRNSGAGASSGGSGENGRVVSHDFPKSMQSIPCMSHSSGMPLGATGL

CC(C)(C)c1onc(O)c1CC(N)C(=O)O (centres unmarked) [ATPA, 2-amino-3-(3-hydroxy-5-tert-butylisoxazol-4-yl)propanoic acid] gave an EC50 (human GluR3) of over 300 µM, an EC50 (human GluR6 [1]) of over 300 µM and an EC50 (human GluR1 [2]) of over 300 µM. For the same compound, the “Estimated activity (Ki) GluR5” value (human GluR5 [3]; HEK293 cells stably transfected with human GluR5, displacement of 3[H] kainate) was 0.0031 µM, the “fold less potent on other human AMPA and kainate receptors than on human GluR5 in binding studies” value (human GluR5 [3]; binding studies, GluR5 vs other human AMPA and kainate receptors) was “more than 1000 fold” and the “Estimated activity (Ki) GluR2” value (human GluR2 [4]) was 38.616 µM. For the same compound, the “Estimated activity (Ki) GluR4” value (human GluR4 [5]) was 15.747 µM, the “Estimated activity (Ki) GluR7” value (human GluR7) was 14.319 µM and the “Estimated activity (Ki) KA2” value (human KA2) was 38.832 µM. For the same compound, the “Estimated activity (Ki) GluR6” value (human GluR6 [6]) was over 1000 µM, the “effect on synaptic inhibition onto CA1 pyramidal neurons” value (CA1 pyramidal neurons) was “reduces synaptic inhibition onto CA1 pyramidal neurons” and the EC50 (human GluR2 [7]) was over 300 µM. For the same compound, the EC50 (human GluR5 [8]; HEK293 cells, human GluR5, patch-clamp, vs 100 mμ KA) was 4 ± 0.7 µM, the “fold less potent on other human AMPA and kainate receptors than on human GluR5 and rat DRG neurons in electrophysiological studies” value (human GluR5 [8]; electrophysiological studies, GluR5 and rat DRG neurons vs other human AMPA and kainate receptors) was 100 fold and the EC50 (human GluR4 [9]) was over 300 µM. The “Estimated activity (Ki) GluR1” value (human GluR1 [10]) was 17.59 µM and the EC50 [11] was 0.56 µM.
